Source: patent publication US20110295343A1, “NEAR-INFRARED ELECTROMAGNETIC MODIFICATION OF CELLULAR STEADY-STATE MEMBRANE POTENTIALS” (priority 2008, published 2011)

Tested on: MRSA
Assay: CFU counts of MRSA plated on agar with antibiotic after sub-lethal NIMELS laser (Examples IX-XII)
Type: cell-based, Staphylococcus aureus
Conditions: antibiotic at resistant MIC just below effectiveness level
Description: The following parameters illustrate the general bacterial methods according to the invention as applied to MRSA for the in vitro Experiments V and VIII-XII.
The null hypothesis is μ1−μ2=0 and μ1−μ3=0 where:
a) μ1 is sub-lethal dosimetry from the NIMEL laser system on MRSA as a control and;
The null hypothesis is μ1−μ2=0 and μ1−μ3=0 where: • a) μ1 is sub-lethal dosimetry from the NIMEL laser system on MRSA as a control and; • b)μ2 is the same sub-lethal dosimetry from the NIMEL laser system on MRSA with the addition of tetracycline at resistant MIC just below effectiveness level and; • c) μ3 is the same sub-lethal dosimetry from the NIMEL laser system on MRSA with the addition of rifampin at resistant MIC just below effectiveness level.
The null hypothesis is μ1−μ2=0 and μ1−μ3=0 where: a) μ1 is sub-lethal dosimetry from the NIMEL laser system on MRSA as a control and; b)μ2 is the same sub-lethal dosimetry from the NIMEL laser system on MRSA with the addition of methicillin at resistant MIC just below effectiveness level and; […]

For COc1cccc(OC)c1C(=O)N[C@@H]1C(=O)N2[C@@H]1SC(C)(C)[C@@H]2C(=O)O [Methicillin], the “effect of sub-lethal NIMELS irradiation on antibiotic action against MRSA colonies (words)” value was “successful reversal of MRSA resistance” and the “effect of sub-lethal NIMELS irradiation on antibiotic action against MRSA colonies (words)” value (listed as methicillin) was “being potentiated by the NIMELS effect”.
